Assay results: US8329862B1, “Cell-killing peptide derived from the C-terminus of NOXA protein” (Chosun University, priority 2004, dated 2012)
No end group written: not given here.

How the values were obtained:
Format in all cases: cell-based
[1] = test system: HeLa cell lines; test: Time-lapse video capture microscopy of HeLa cell death; details: for morphology of dead HeLa cells: CKP at 23 minutes and 20 seconds, TRAIL at 5 hours and 30 minutes, FIG. 8
Procedure: In order to analyze the action mode of CKP peptide of the present invention, several substances that are known to kill cells were adopted to compare the cell-killing effects. Above all, CKP peptide (10 μM), TRAIL (100 ng/ml) and Cisplatin (100 μg/ml) were treated to HeLa cell lines and observed under time-lapse video capture microscopy (Leica, Model: DMIRBE, Germany) in some time-interval (for CKP peptide, 20 seconds; TRAIL, 40 seconds; Cisplatin, 3 minutes) for 1 hour and 40 minutes, 3 hours and 30 minutes, 8 hours and 48 hours respectively. Then, the results were photographed to 40× by using FW4000 software. FIG. 7 depicts HeLa cells serially at each time interval. As a result, it is observed that the cell death caused by TRAIL started at about 1 hour and 30 minutes after treatment and reached the maximum level at about 8 hours. To the contrary, HeLa cell started to die at about 10 minutes after treating CKP peptide and most of HeLa cells have died even at 23 minutes and 20 seconds.

[2] = test system: HeLa cell, a cervical cancer cell line; test: Relative survival ratio of HeLa cells, counted from time-lapse microscopy; details: 1 hour
Procedure: In order to measure the strength of CKP peptide, several substances that are known to kill cells were adopted to compare the cell-killing effects. HeLa cell, a cervical cancer cell line was cultivated and treated with CKP peptide, TRAIL and Cisplatin to 30 μM, 100 ng/ml and 100 μg/ml respectively for 1 hour. After that, the resulting cells were observed under time-lapse video capture microscopy (Leica, Model: DMI RBE, Germany) in 20 seconds of time-interval for 1 hour by the procedure described in Example 5, photographed to 40×, counted for the numbers of living cells and dead cells and then, estimated the relative survival ratio in a graph. […] As a consequence, it is clarified that CKP peptide of the present invention had the strongest cell-killing effect about 9-fold more than TRAIL or Cisplatin.

[3] = test system: HeLa cell, a cervical cancer cell line; test: Cell-killing effect on HeLa cells, crystal violet staining of attached living cells; details: for cell-killing activity: procedure of Example 2, crystal violet; for cell-killing activity compared with CKP peptide: procedure of Example 2, FIG. 6
Procedure: In order to examine the cell-killing effect of CKP peptide synthesized in Example 1, HeLa cell, a cervical cancer cell line was adopted and cultivated. The culture medium was replaced with experimental media containing CKP peptide solution in 0, 1, 5, 10, 15, 20, 30, 40 μM of concentration serially and cultivated for more 24 hours. In order to observe living cells attached on the surface, the resulting cells were stained for 10 minutes by using 100 μl of 0.5% crystal violet and then, washed out by using distilled water and running water to be de-stained, while discarding cells floating on the culture medium. Then, cells were observed by photography after placing culture vessel under a fluorescent lamp box as depicted in FIG. 3. At this moment, living cells attached on the surface appeared blue color since they were stained by crystal violet.

[4] = test system: HeLa cell, a cervical cancer cell line; test: as above; details: pan-caspase inhibitor z-VAD-fmk in culture media, FIG. 11

RRRRRRRRGRQKLLNLISKLF [CKP peptide]
morphology of dead HeLa cells [1]: several cell membranes like balloon
time at which HeLa cells started to die after treatment ([1]; CKP peptide 10 μM): about 10 minutes
cell-killing effect relative to TRAIL or Cisplatin [2]: about 9 fold
concentration from which cell-killing activity is seen ([3]; 0-40 μM, 24 hours, crystal violet, FIG. 3): ≥ 10 µM
cell-killing activity [3]: became strong remarkably

BidBH3CKP: fusion protein that combines CKP peptide with BidBH3 peptide, SEQ ID NO: 12 (RRRRRRRRGNIARHLAQVGDSMDRRQKLLNLISKLF; Fusion protein)
cell-killing activity relative to BidBH3 peptide ([3]; procedure of Example 2): 2 fold
difference of cell-killing activity with or without z-VAD-fmk [4]: not significant difference

CKP 7: SEQ ID NO: 10 (RRRRRRRRGRQKLLNAISKLF), 5th leucine substituted to alanine (Fusion protein)
cell-killing activity compared with CKP peptide [3]: decreased the cell-killing activity remarkably

CKP 3: SEQ ID NO: 6 (RRRRRRRRGRQKLAALISKLF), substituted in two residues (fusion protein)
cell-killing activity compared with CKP peptide [3]: decreased the cell-killing activity slightly

Bid(mt)BH3CKP: fusion protein combining CKP peptide with mutant BidBH3 deleting the active site of BH3 domain, SEQ ID NO: 13 (RRRRRRRRGNIARHLAQVADSMDRRQKLLNLISKLF; Fusion protein)
cell-killing activity [3]: had the cell-killing activity

CKP 8: SEQ ID NO: 11 (RRRRRRRRGRQKLLNLISKAF), 9th leucine substituted to alanine (Fusion protein)
cell-killing activity compared with CKP peptide [3]: decreased the cell-killing activity remarkably

CKP 2: SEQ ID NO: 5 (RRRRRRRRGRQKALNLISKLF), substituted in one residue (fusion protein)
cell-killing activity compared with CKP peptide [3]: decreased the cell-killing activity slightly

CKP 6: SEQ ID NO: 9 (RRRRRRRRGRQKAANLISKLF), 2nd and 3rd leucines substituted to alanine (Fusion protein)
cell-killing activity compared with CKP peptide [3]: decreased the cell-killing activity remarkably

CKP 5: SEQ ID NO: 8 (RRRRRRRRGRQKALNLIAALF), substituted in three residues (fusion protein)
cell-killing activity compared with CKP peptide [3]: decreased the cell-killing activity slightly

CKP 4: SEQ ID NO: 7 (RRRRRRRRGRQKLLNLIAALF), substituted in two residues (fusion protein)
cell-killing activity compared with CKP peptide [3]: outstanding rather than CKP peptide

PTD domain without CKP domain: only PTD domain without CKP domain, synthesized as in Example 1 (RRRRRRRRG; protein transduction domain) [reference compound]
cell-killing activity [3]: not detected at all

B1: TRAIL (protein, UniProt P50591 1-281, looked up)
Tumor necrosis factor ligand …: MAMMEVQGGPSLGQTCVLIVIFTVLLQSLCVAVTYVYFTNELKQMQDKYSKSGIACFLKEDDSYWDPNDEESMNSPCWQVKWQLRQLVRKMILRTSEETISTVQEKQQNISPLVRERGPQRVAAHITGTRGRSNTLSSPNSKNEKALGRKINSWESSRSGHSFLSNLHLRNGELVIHEKGFYYIYSQTYFRFQEEIKENTKNDKQMVQYIYKYTSYPDPILLMKSARNSCWSKDAEYGLYSIYQGGIFELKENDRIFVSVTNEHLIDMDHEASFFGAFLVG
notes: substance known to kill cells, used as comparator
morphology of dead HeLa cells [1]: not to have cell membrane like balloon
time at which cell death reached the maximum level ([1]; TRAIL 100 ng/ml): about 8 hours
